Data set [1] has as its target T1, COX-1 (Ovis aries, UniProt P05979).
T1 construct: purchased
T1 sequence (P05979 25-600): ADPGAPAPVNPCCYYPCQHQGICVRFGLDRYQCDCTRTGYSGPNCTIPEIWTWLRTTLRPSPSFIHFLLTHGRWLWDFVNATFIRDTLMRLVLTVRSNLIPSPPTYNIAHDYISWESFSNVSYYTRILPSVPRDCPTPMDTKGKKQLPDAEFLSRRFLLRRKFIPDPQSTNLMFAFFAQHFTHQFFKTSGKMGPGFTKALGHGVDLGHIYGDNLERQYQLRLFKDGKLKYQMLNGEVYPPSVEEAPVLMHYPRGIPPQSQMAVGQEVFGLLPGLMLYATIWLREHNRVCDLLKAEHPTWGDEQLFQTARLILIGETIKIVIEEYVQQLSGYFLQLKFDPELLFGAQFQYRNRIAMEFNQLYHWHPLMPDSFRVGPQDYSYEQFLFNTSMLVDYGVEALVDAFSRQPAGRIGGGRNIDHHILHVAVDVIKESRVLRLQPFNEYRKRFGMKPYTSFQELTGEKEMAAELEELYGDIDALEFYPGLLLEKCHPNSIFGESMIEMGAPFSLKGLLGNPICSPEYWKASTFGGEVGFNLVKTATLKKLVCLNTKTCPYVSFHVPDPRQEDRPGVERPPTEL
Put plainly: Cyclooxygenase inhibition assay (colorimetric, peroxidase activity, TMPD oxidation). Format: biochemical. The conditions noted are these: incubation 2 min; mean ± SD. The method, then: (§1) To conduct the cyclooxygenase inhibition assay, we utilized a kit from the manufacturer that contained 150 μL of assay buffer, 10 μL of heme, and 10 μL of either COX-1 or COX-2 enzyme. Each sample was prepared in triplicate, with the addition of 10–500 μM of the test compounds and […] of solvents such as methanol, ethanol, and dimethyl sulfoxide (DMSO). We then added 20 μL of N,N,N cent,N cent-tetramethyl-p-phenylenediamine (TMPD) to each well. Arachidonic acid was introduced to initiate the reaction, which was allowed to proceed for 2 min. Following the incubation period, the extent of TMPD oxidation was measured using the multiscan Go microplate reader at a wavelength of 590 nm (Thermo Fisher Scientific, Waltham, MA, USA).
Cyclooxygenase (COX) peroxidase activity was evaluated using a colorimetric assay. […] The incubation period was maintained at 2 min, following the manufacturer’s guidelines. […] We determined the concentrations of all compounds required for 50% inhibition of COX-1 and COX-2. IC50 values were then calculated, and the ratio of IC50 values for both cyclooxygenase isoforms allowed us to assess the selectivity of the tested structures for COX-1 and COX-2.

Data set [2] has as its target T2, COX-2 (Homo sapiens, UniProt P35354).
T2 construct: purchased
T2 sequence (P35354 18-604): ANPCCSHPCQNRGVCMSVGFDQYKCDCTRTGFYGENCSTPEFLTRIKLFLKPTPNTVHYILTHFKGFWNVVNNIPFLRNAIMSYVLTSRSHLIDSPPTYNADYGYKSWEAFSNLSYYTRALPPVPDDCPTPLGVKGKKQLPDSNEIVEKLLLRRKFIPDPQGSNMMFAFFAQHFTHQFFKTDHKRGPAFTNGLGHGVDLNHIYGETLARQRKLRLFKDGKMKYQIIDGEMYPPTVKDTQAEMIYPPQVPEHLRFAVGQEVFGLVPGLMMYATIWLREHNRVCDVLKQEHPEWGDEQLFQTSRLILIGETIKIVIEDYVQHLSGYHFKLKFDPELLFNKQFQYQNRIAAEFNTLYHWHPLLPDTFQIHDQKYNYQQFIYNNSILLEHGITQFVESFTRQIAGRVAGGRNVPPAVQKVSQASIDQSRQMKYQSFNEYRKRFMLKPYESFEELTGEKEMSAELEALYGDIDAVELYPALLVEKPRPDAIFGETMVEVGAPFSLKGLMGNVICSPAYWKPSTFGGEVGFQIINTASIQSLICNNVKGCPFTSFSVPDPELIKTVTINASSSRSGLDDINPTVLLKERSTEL
The description is as above. Format: biochemical. The note with it: for IC50: incubation 2 min, mean ± SD; for Selectivity Ratio: (COX-2/COX-1): ratio of IC50 values. The method, then: as §1
Cyclooxygenase (COX) peroxidase activity was evaluated using a colorimetric assay. […] The incubation period was maintained at 2 min, following the manufacturer’s guidelines. […] IC50 values were then calculated, and the ratio of IC50 values for both cyclooxygenase isoforms allowed us to assess the selectivity of the tested structures for COX-1 and COX-2.

A short description of data set [3]: ABTS radical scavenging assay. It is filed as physicochemical. The note with it: 30 min incubation; mean ± SD, n = 3. The method, then:
The activity of ABTS (2,2′-azino-bis(3-ethylbenzothiazoline-6-sulphonic acid)) was assessed to evaluate the radical scavenging potential of the synthesized compounds. The ABTS reagent was generated by combining equal volumes of a 7 mM aqueous solution of ABTS and a 2.45 mM potassium persulfate solution. This mixture was then incubated in the dark at room temperature for 16 h. Following incubation, the solution was diluted with ethanol until the absorbance reached approximately 0.7 ± 0.05 at a wavelength of 734 nm. The stock solutions of the synthesized compounds in DMSO were serially diluted to obtain concentrations ranging from 500 μM to 10 μM in ethanol. The ABTS reagent was then treated with various concentrations of each compound and incubated in the dark at room temperature. After 30 min of incubation, the absorbance was measured at 734 nm, using ethanol as the blank control. Ascorbic acid served as the standard for comparison, and the IC50 values for the synthesized compounds were calculated using the following Equation (3):(3) %ABTS scavenging activity=Abscontrol−Abs sample/Abs (control)×100

In data set [4] the test system is NHDF cells exposed to LPS. Put plainly: Inflammation model, MTT assay after LPS. It is filed as cell-based, human. The note with it: LPS 50 µg/mL 24 h, then compound 10, 50, 100 µM 24 h. The method, then: Cells seeded in 96-well plates were treated with 50 ug/mL LPS for 24 h for the MTT assay or 1 h for the DCF-DA assay. […] After this time, MTT and DCF-DA assays were performed according to the procedure described in Wiatrak et al.

For `COc1ccc(C(=O)C2=C(O)c3ccccc3S(=O)(=O)N2CCCN2CCN(c3ccccn3)CC2)cc1` [BS23], the IC50 in data set [1] was determined as 242 ± 4.2 µM; in data set [2], 13.2 ± 2.1 µM; in data set [3] it was 54.2 ± 2.2 µM. Also, the “Selectivity Ratio: (COX-2/COX-1)” value in data set [2] is listed as 0.05. Besides, the “cell viability after LPS then compound” value in data set [4] is reported as “around 70 % of the value for untreated (control) cells”.
`O=C(C1=C(O)c2ccccc2S(=O)(=O)N1CC(=O)N1CCN(c2ccccc2)CC1)c1ccc(Br)cc1` [BS28, 3-(4-Bromobenzoyl)-2-[2-(4-phenylpiperazin-1-yl)-2-oxoethyl]-4-hydroxy-2H-1,2-benzothiazine 1,1-dioxide]: the IC50 in data set [1] is 95.9 ± 5.7 µM; in data set [2], 12.5 ± 1.9 µM; in data set [3] it was 88.4 ± 1.9 µM. The “Selectivity Ratio: (COX-2/COX-1)” value in data set [2] came to 0.13.
